Paper PMC6128612, “Prodrugs for colon-restricted delivery: Design, synthesis, and in vivo evaluation of colony stimulating factor 1 receptor (CSF1R) inhibitors” (PLoS ONE, 2018)

How the values were obtained:
murine colitis = test system: murine colitis; set-up: method as in earlier work; details: cited from earlier work
[1] = test system: CD11b+ CD11c+ MHCII- nonclassical monocytes; experiment: Mouse DSS model of colitis: circulating non-classical monocytes by FACS; format: in vivo; details: 100 mg/kg QD day 7–14
Procedure: (§1) On day 0, super prophylactic dosing of compound 2 began on C57BL/6 female mice. […] At this time compound 3 dosing initiated. […] Statistical analyses of in-vivo pharmacodynamic and efficacy data were performed as follows. D'Agostino & Pearson normality test was first used to test data for Gaussian distribution. If all groups passed normality test, a One-way ANOVA was used with Dunnett’s multiple comparisons test to compare treatment groups to Vehicle group. If not all groups passed normality test, a Kruskal-Wallis nonparametric ANOVA was used, with Dunn’s multiple comparison test to compare treatment groups to Vehicle group. Levels of significance compared to Vehicle are annotated as follows: * = p<0.05, ** = p<0.01, *** = p<0.001, **** = p < 0.0001. Optimal number of mice per group was determined using power analysis; N = 10 mice per group at 80% power predicts statistically significant detection of ≥ ~40% reduction in colon IBA1+ and ≥ ~75% reduction in colon erosion length comparing treatment groups to Vehicle group. Naïve groups were omitted from statistical analyses.

[2] = test system: IBA1+ macrophages in the colon; experiment: Mouse DSS model of colitis: colon macrophages by image analysis; format: in vivo; details: 100 mg/kg QD day 7–14
Procedure: as §1

rheumatoid arthritis = test system: rheumatoid arthritis; set-up: method as in PMID 26233509; details: DMARD-refractory active RA patients; cited from earlier work

Question: What does the source list for `CC1(C)CC=C(c2nc(C3CC(C)(C)OC(C)(C)C3)ccc2NC(=O)c2nc(C#N)c[nH]2)CC1` [Compound 3]?
Answer: Clinical and histopathological disease readouts (murine colitis): reduction in clinical and histopathological disease readouts; Depletion of CD11b+ CD11c+ MHCII- nonclassical monocytes [1]: 94%; Depletion of macrophages (IBA1+) in the colon [2]: 76%; Efficacy in Phase II trial (rheumatoid arthritis): lack of efficacy
